Experimental findings from US7030121B2, “Pyrazolopyrazine compound and pharmaceutical use thereof” (Astellas Pharma Inc., priority 2001, dated 2006) are described below.

For one data set, the system named is ddY mice. Nature of the data set: Anticatalepsy activity in mouse (haloperidol-induced catalepsy). The class given is in vivo. The settings on record: 3.2 mg/kg orally, ddY mice n=7; haloperidol 0.32 mg/kg i.p. 30 min later; measured 30 min after injection. How it is done:
Test 2: Anticatalepsy Activity in Mouse [I] Test Method
The test compound (3.2 mg/kg) was administered orally with ddY mice (n=7). Then, haloperidol (0.32 mg/kg) was injected intraperitoneally 30 min. after the administration of the compound. Thirty min. after the injection, the cataleptic responses of mice were measured. The forelimbs of each mouse were placed on a 3 cm high, 3 mm wide horizontal bar, and the duration of cataleptic posture was measured for up to 30 sec.

The target of another data set is human A2a receptor (Homo sapiens, UniProt P29274). Description: Adenosine antagonistic activity, radioligand binding with [3H]CGS 21680. The settings on record: [3H]CGS 21680 20 nM. Here is the method:
(§1) Test 1: Adenosine Antagonistic Activity
(§2) The adenosine antagonistic activity [Ki(nM)] of the test compound was examined by radioligand binding techniques using 8-cyclopentyl-1,3-dipropylxanthine, [dipropyl-2,3-^3H(N)] ([^3H]DPCPX, 4.5 nM) for human A1 receptor and [^3H]CGS 21680 (20 nM) for human A2a receptor.

For another data set, the target named is T1, human A1 receptor (Homo sapiens, UniProt P30542).
T1 sequence (P30542 1-326): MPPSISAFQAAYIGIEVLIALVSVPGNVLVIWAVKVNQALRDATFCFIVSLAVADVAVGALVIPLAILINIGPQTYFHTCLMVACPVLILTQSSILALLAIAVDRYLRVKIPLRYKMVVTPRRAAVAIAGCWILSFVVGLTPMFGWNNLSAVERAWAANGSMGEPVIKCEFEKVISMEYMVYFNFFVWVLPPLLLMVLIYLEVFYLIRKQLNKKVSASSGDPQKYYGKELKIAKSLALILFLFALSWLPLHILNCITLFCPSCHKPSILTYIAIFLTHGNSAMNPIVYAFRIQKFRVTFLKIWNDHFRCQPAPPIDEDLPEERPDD
Description: Adenosine antagonistic activity, radioligand binding with [3H]DPCPX. The settings on record: [3H]DPCPX 4.5 nM. How it is done:
as §1, §2

The structures appear in SMILES notation.

human A2a receptor, sequence (P29274 whole entry): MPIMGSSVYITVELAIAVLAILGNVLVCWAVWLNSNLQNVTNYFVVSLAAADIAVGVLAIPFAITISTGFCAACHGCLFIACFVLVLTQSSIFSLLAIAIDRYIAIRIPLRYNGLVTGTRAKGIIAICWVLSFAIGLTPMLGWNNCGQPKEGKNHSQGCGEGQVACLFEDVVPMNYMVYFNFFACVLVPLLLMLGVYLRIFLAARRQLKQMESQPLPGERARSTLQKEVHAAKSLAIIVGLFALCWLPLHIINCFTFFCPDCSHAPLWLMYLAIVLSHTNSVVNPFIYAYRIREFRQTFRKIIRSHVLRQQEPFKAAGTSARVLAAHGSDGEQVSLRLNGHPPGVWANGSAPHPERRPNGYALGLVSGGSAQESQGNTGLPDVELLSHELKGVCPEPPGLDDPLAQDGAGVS

Turning to `O=c1ccc(-c2c(-c3ccccc3)nn3ccncc23)c[nH]1` [Example 1, 3-(2(1H)-pyridinon-5-yl)-2-phenylpyrazolo[1,5-a]pyrazine], the melting point was greater than 250 °C. Also, the “Manifestation rate of catalepsy (number of mouse)” value (from here on “Manifestation rate of catalepsy”) with ddY mice is on record as 1/7. Also, the inhibition constant Ki on human A2a receptor came out at 0.68 nM. Further, the affinity on human A1 receptor, expressed as Ki, was 0.18 nM.

On to `Cn1cc(-c2c(-c3ccccc3)nn3ccncc23)ccc1=O` [Example 2, 3-(1-methyl-2(1H)-pyridinon-5-yl)-2-phenylpyrazolo[1,5-a]pyrazine], for which the melting point is 168 to 169 °C. The “Manifestation rate of catalepsy” value in the data set with ddY mice was 0/7. The compound further came in with a Ki at human A2a receptor of 3.28 nM. This compound also yielded a Ki at human A1 receptor of 0.35 nM. `CC(C)n1cc(-c2c(-c3ccccc3)nn3ccncc23)ccc1=O` [Example 3, 3-(1-Isopropyl-2(1H)-pyridinon-5-yl)-2-phenylpyrazolo[1,5-a]pyrazine] yielded a melting point of 196 to 197 °C. Same read-out and setting: for `CCn1cc(-c2c(-c3ccccc3)nn3ccncc23)ccc1=O` [Example 4, 3-(1-Ethyl-2 (1H)-pyridinon-5-yl)-2-phenylpyrazolo[1,5-a]pyrazine] the value was 192 to 193 °C. Compound `CCCn1cc(-c2c(-c3ccccc3)nn3ccncc23)ccc1=O` [Example 5, 3-(1-n-Propyl-2(1H)-pyridinon-5-yl)-2-phenylpyrazolo[1,5-a]pyrazine] showed a melting point of 165 to 166 °C.

In the case of `Cn1cc(-c2c(-c3ccc(F)cc3)nn3ccncc23)ccc1=O` [Example 7, 3-(1-Methyl-2(1H)-pyridinon-5-yl)-2-(4-fluorophenyl)pyrazolo[1,5-a]pyrazine], the melting point lay in the range of 222 to 223 °C. `CC(C)n1cc(-c2c(-c3ccc(F)cc3)nn3ccncc23)ccc1=O` [Example 8, 3-(1-Isopropyl-2(1H)-pyridinon-5-yl)-2-(4-fluorophenyl)pyrazolo[1,5-a]pyrazine]: the melting point is 214 to 215 °C. `CCn1cc(-c2c(-c3ccc(F)cc3)nn3ccncc23)ccc1=O` [Example 9, 3-(1-Ethyl-2(1H)-pyridinon-5-yl)-2-(4-fluorophenyl)pyrazolo[1,5-a]pyrazine]: the melting point lay within 165 to 166 °C. Further, the “Manifestation rate of catalepsy” value with ddY mice is given as 0/7. The inhibition constant Ki on human A2a receptor stood at 4.44 nM. In addition, the affinity at human A1 receptor, expressed as Ki, was 0.36 nM. `CCCn1cc(-c2c(-c3ccc(F)cc3)nn3ccncc23)ccc1=O` [Example 10, 3-(1-n-Propyl-2(1H)-pyridinon-5-yl)-2-(4-fluorophenyl)pyrazolo[1,5-a]pyrazine] yielded a melting point of 183 to 184 °C. Still for that read-out and setting: next, `Cn1cc(-c2c(-c3ccccc3F)nn3ccncc23)ccc1=O` [Example 12, 3-(1-Methyl-2(1H)-pyridinon-5-yl)-2-(2-fluorophenyl)pyrazolo[1,5-a]pyrazine]: 193 to 194 °C. On the same count and under the same terms, next, `CC(C)n1cc(-c2c(-c3ccccc3F)nn3ccncc23)ccc1=O` [Example 13, 3-(1-Isopropyl-2(1H)-pyridinon-5-yl)-2-(2-fluorophenyl)pyrazolo[1,5-a]pyrazine]: 150 to 151 °C; `CCn1cc(-c2c(-c3ccccc3F)nn3ccncc23)ccc1=O` [Example 14, 3-(1-Ethyl-2(1H)-pyridinon-5-yl)-2-(2-fluorophenyl)pyrazolo[1,5-a]pyrazine]: 173 to 174 °C; `CCCn1cc(-c2c(-c3ccccc3F)nn3ccncc23)ccc1=O` [Example 15, 3-(1-n-Propyl-2(1H)-pyridinon-5-yl)-2-(2-fluorophenyl)pyrazolo[1,5-a]pyrazine]: 127 to 128 °C.

The melting point is the temperature, or range, at which the solid turns liquid. Broadly, the Ki is the dissociation constant of the complex between target and ligand, obtained from inhibition or displacement. Low readings indicate a stronger hold on the target, high ones a looser hold on the target.
